Measured values reported in ChEMBL document CHEMBL1143692, “Modulating paclitaxel bioavailability for targeting prostate cancer” (Bioorg Med Chem, 2007).
Starred links: 1 amine or outer side, 2 acyl side, 3 side chain; linkers in the order of their positions; H or OH if unused. Residues, ends and D or L forms follow the SMILES beside them. *: point of attachment. Morpholide = C1CN(*)CCO1; CO = O=C([*:1])[*:2]

What was measured:
Serum = test: Degradation in serum at 100 uM after 48 hrs; type: functional, Homo sapiens
Plasma = test: Degradation in plasma at 100 uM after 48 hrs; type: functional, Homo sapiens
[1] = test system: prostate-specific antigen; test: Half life in Tris buffer at pH 7.8, 37 degC for 48 hrs in presence of prostate-specific antigen at 100 uM; type: ADME, Prostate gland; conditions: Tris buffer with prostate-specific antigen
CWR22R = test: Toxicity against human CWR22Rv1 cells upto 100 uM; type: functional, cell-based
DU-145 [2] = test: Toxicity against human DU145 cells upto 100 uM; type: functional, cell-based
TSU [3] = test: Toxicity against human TSU cells upto 100 uM; type: functional, cell-based
TSU [4] = test: Growth inhibition of human TSU cells; type: functional, cell-based
[5] = Growth inhibition of human CWR22Rv1 cells; type: functional, cell-based, CWR22R; conditions: 22Rv1
DU-145 [6] = test: Growth inhibition of human DU145 cells; type: functional, cell-based
[7] = Cytotoxicity against human CWR22Rv1 cells after 96 hrs; type: functional, cell-based, CWR22R; conditions: 22Rv1, 96 h
Homo sapiens [8] = species on record: Homo sapiens; test: Ratio of […] for prostate-specific antigen; conditions: Prostate gland
TSU [9] = test: Growth inhibition of human TSU cells at 1 nM; type: functional
[10] = Half life in serum at 100 uM after 48 hrs at 37 degC; type: ADME, cell-free; conditions: human
Homo sapiens [11] = species on record: Homo sapiens; test: Activity at prostate-specific antigen hydrolysis at pH 7.8; type: tissue-based; conditions: Prostate gland

SMILES	Activity (Serum) [%]	Percent degraded (Plasma) [%]	half-life at 100 µM [1] [h]	inhibition at 0.001 µM (TSU [9]) [%]	half-life at 100 µM [10] [h]	also measured
CC(=O)O[C@H]1C(=O)[C@]2(C)[C@@H](O)C[C@@H]3OC[C@]3(OC(C)=O)[C@@H]2[C@H](OC(=O)c2ccccc2)[C@]2(O)C[C@@H](OC(=O)[C@H](OC(=O)N(C)CCNC(=O)[C@H](CCC(N)=O)NC(=O)[C@H](CC(C)C)NC(=O)[C@H](CCCCN)NC(=O)[C@H](CO)NC(=O)[C@H](CO)NC(=O)[C@H](Cc3c[nH]cn3)NC(=O)N3CCOCC3)[C@@H](NC(=O)c3ccccc3)c3ccccc3)C(C)=C1C2(C)C	<2	<3	10	–	–	–
NCCCC[C@H](NC(=O)[C@H](CO)NC(=O)[C@H](CO)NC(=O)N1CCOCC1)C(=O)N[C@@H](Cc1ccc(O)cc1)C(=O)N[C@@H](CCC(N)=O)C(=O)O ({Morpholide-CO}-SSKYQ-OH)	–	–	–	–	–	Activity (CWR22R): Not toxic; Activity (DU-145 [2]): Not toxic; Activity (TSU [3]): Not toxic
CC(=O)O[C@H]1C(=O)[C@]2(C)[C@@H](O)C[C@@H]3OC[C@]3(OC(C)=O)[C@@H]2[C@H](OC(=O)c2ccccc2)[C@]2(O)C[C@@H](OC(=O)[C@H](OC(=O)N(C)CCNC(=O)[C@H](CCC(N)=O)NC(=O)[C@H](Cc3ccc(O)cc3)NC(=O)[C@H](CCCCN)NC(=O)[C@H](CO)NC(=O)[C@H](CO)NC(=O)N3CCOCC3)[C@@H](NC(=O)c3ccccc3)c3ccccc3)C(C)=C1C2(C)C	<2	<3	6	–	–	IC50 (TSU [4]): < 1 nM; IC50 [5]: < 1 nM; IC50 (DU-145 [6]): < 1 nM; IC50 [7]: 1000 nM
CC(=O)O[C@H]1C(=O)[C@]2(C)[C@@H](OC(=O)OCc3ccc(NC(=O)[C@H](CCC(N)=O)NC(=O)[C@H](CC(C)C)NC(=O)[C@H](CCCCN)NC(=O)[C@H](CO)NC(=O)[C@H](CO)NC(=O)[C@H](Cc4c[nH]cn4)NC(=O)N4CCOCC4)cc3)C[C@@H]3OC[C@]3(OC(C)=O)[C@@H]2[C@H](OC(=O)c2ccccc2)[C@]2(O)C[C@@H](OC(=O)[C@H](O)[C@@H](NC(=O)c3ccccc3)c3ccccc3)C(C)=C1C2(C)C	92	7	14	30	1.5	kcat/Km (Homo sapiens [8]): 27 M⁻¹ s⁻¹; Km (Homo sapiens [11]): 216 µM; kcat (Homo sapiens [11]): 0.00585 s⁻¹
CC(=O)O[C@H]1C(=O)[C@@]2(C)[C@H]([C@H](OC(=O)c3ccccc3)[C@]3(O)C[C@H](OC(=O)[C@H](O)[C@@H](NC(=O)c4ccccc4)c4ccccc4)C(C)=C1C3(C)C)[C@]1(OC(C)=O)CO[C@@H]1C[C@@H]2O [PACLITAXEL]	–	–	–	90	–	–
CC(=O)O[C@H]1C(=O)[C@]2(C)[C@@H](O)C[C@@H]3OC[C@]3(OC(C)=O)[C@@H]2[C@H](OC(=O)c2ccccc2)[C@]2(O)C[C@@H](OC(=O)[C@H](OC(=O)OCc3ccc(NC(=O)[C@H](CCC(N)=O)NC(=O)[C@H](CC(C)C)NC(=O)[C@H](CCCCN)NC(=O)[C@H](CO)NC(=O)[C@H](CO)NC(=O)[C@H](Cc4c[nH]cn4)NC(=O)N4CCOCC4)cc3)[C@@H](NC(=O)c3ccccc3)c3ccccc3)C(C)=C1C2(C)C	87	10	12	30	1	–
